From EP0547317A1, “Endothelin antagonists” (TAKEDA CHEMICAL INDUSTRIES, LTD., priority 1991, dated 1993)
Bridge positions count the residues as written; N and C are the ends. Square brackets hold non-standard residues; d marks the D form. Peptide text beside a SMILES is read from it. tBuAla = CC(C)(C)C[C@H](N)C(=O)O; Cha = N[C@@H](CC1CCCCC1)C(=O)O; Mpa = O=C(O)CCS

Tested on: porcine coronary smooth muscles
Test: Assay of constrictor suppressing activity on porcine coronary smooth muscles (antagonism of endothelin-1 constriction)
Assay type: cell-based
Conditions: for pA₂: antagonistic activity on constriction by endothelin-1 given cumulatively about 15 minutes after the compound, negative logarithm of molar concentration of antagonist shifting the dose response curve by a factor of 2; for Relative potency: antagonistic activity on the constriction of porcine coronary smooth muscles, Example 1 = 100
Protocol: • (1) Assay of Constrictor Suppressing Activity on Porcine Coronary Smooth Muscles Spiral strips 2 mm x 15 mm prepared from the coronary right ramus circumflexus from which the adventitial connective tissues and the endothelial cells were removed were set to 4 ml organ baths. The tension of each strip was detected by a force displacement transducer UL-10GR (Minebea), and recorded by a polygraph (NEC Sanei). The organ baths were maintained at 37°C, and filled with a Krebs-Henseleit solution (composition: 118 mM NaCl, 4.7 mM KCl, 2.5 mM CaCl₂, 1.2 mM KH₂PO₄, 25.0 mM NaHCO₃, 1.2 mM MgSO₄, 10.0 mM glucose) gassed with 95% O₂ and 5% CO₂. A tension of 1.25 to 1.5 g was applied to each of the strips, followed by equilibration for 1.5 hours. 60 mM KCl was repeatedly applied thereto at intervals of 30 minutes until the constriction response became constant. After additional equilibration for 1.5 hours, a sample for assay was given thereto. The constriction of the strips was normalized by the constriction response of the individual strips to 60 mM KCl and statistically processed. The suppressing activity was determined as a pA₂ value by giving endothelin-1 cumulatively about 15 minutes after the compound having a predetermined concentration was given, and comparing the constriction thereof with that of a control sample in which only endothelin-1 was given. […] Such a case has not been reported yet. […] The affinity for the receptor was assayed by the following method.

Row | Compound | pA₂ | Relative potency
1 | CC[C@H](C)[C@H](NC(=O)[C@H](CC(C)C)NC(=O)[C@@H](NC(=O)[C@H](CC(C)C)NC(=O)[C@H](Cc1c[nH]cn1)NC(=O)[C@@H]1CSSC[C@H](N)C(=O)N[C@@H](CO)C(=O)N[C@H]2CSSC[C@H](NC(=O)[C@H](CCC(=O)O)NC(=O)[C@H](CCCCN)NC(=O)[C@H](CC(=O)O)NC(=O)[C@H](CCSC)NC(=O)[C@H](CC(C)C)NC(=O)[C@H](CO)NC(=O)[C@H](CO)NC2=O)C(=O)N[C@@H](C(C)C)C(=O)N[C@@H](Cc2ccc(O)cc2)C(=O)N[C@@H](Cc2ccccc2)C(=O)N1)[C@@H](C)O)C(=O)N[C@@H](Cc1c[nH]c2ccccc12)C(=O)O [Example 1, [Thr¹⁸, Leu¹⁹]-ET-1] (H-CSCSSLMDKECVYFCHLTLIW-OH; disulfide 1-15, 3-11) | 7.7 | 100
2 | CC[C@H](C)[C@H](NC(=O)[C@H](CC1CCCCC1)NC(=O)[C@@H](NC(=O)[C@H](CC(C)C)NC(=O)[C@H](Cc1c[nH]cn1)NC(=O)[C@@H]1CSSC[C@H](N)C(=O)N[C@@H](CO)C(=O)N[C@H]2CSSC[C@H](NC(=O)[C@H](CCC(=O)O)NC(=O)[C@H](CCCCN)NC(=O)[C@H](CC(=O)O)NC(=O)[C@H](CCSC)NC(=O)[C@H](CC(C)C)NC(=O)[C@H](CO)NC(=O)[C@H](CO)NC2=O)C(=O)N[C@@H](C(C)C)C(=O)N[C@@H](Cc2ccc(O)cc2)C(=O)N[C@@H](Cc2ccccc2)C(=O)N1)[C@@H](C)O)C(=O)N[C@@H](Cc1c[nH]c2ccccc12)C(=O)O [Example 2, [Thr¹⁸, Cha¹⁹]-ET-1] (H-CSCSSLMDKECVYFCHLT[Cha]IW-OH; disulfide 1-15, 3-11) | 7.7 | 100
3 | CC[C@H](C)[C@H](NC(=O)[C@H](Cc1ccccc1)NC(=O)[C@@H](NC(=O)[C@H](CC(C)C)NC(=O)[C@H](Cc1c[nH]cn1)NC(=O)[C@@H]1CSSC[C@H](N)C(=O)N[C@@H](CO)C(=O)N[C@H]2CSSC[C@H](NC(=O)[C@H](CCC(=O)O)NC(=O)[C@H](CCCCN)NC(=O)[C@H](CC(=O)O)NC(=O)[C@H](CCSC)NC(=O)[C@H](CC(C)C)NC(=O)[C@H](CO)NC(=O)[C@H](CO)NC2=O)C(=O)N[C@@H](C(C)C)C(=O)N[C@@H](Cc2ccc(O)cc2)C(=O)N[C@@H](Cc2ccccc2)C(=O)N1)[C@@H](C)O)C(=O)N[C@@H](Cc1c[nH]c2ccccc12)C(=O)O [Example 3, [Thr¹⁸, Phe¹⁹]-ET-1] (H-CSCSSLMDKECVYFCHLTFIW-OH; disulfide 1-15, 3-11) | 7.2 | 32
4 | CC[C@H](C)[C@H](NC(=O)[C@H](CC(C)(C)C)NC(=O)[C@@H](NC(=O)[C@H](CC(C)C)NC(=O)[C@H](Cc1c[nH]cn1)NC(=O)[C@@H]1CSSC[C@H](N)C(=O)N[C@@H](CO)C(=O)N[C@H]2CSSC[C@H](NC(=O)[C@H](CCC(=O)O)NC(=O)[C@H](CCCCN)NC(=O)[C@H](CC(=O)O)NC(=O)[C@H](CCSC)NC(=O)[C@H](CC(C)C)NC(=O)[C@H](CO)NC(=O)[C@H](CO)NC2=O)C(=O)N[C@@H](C(C)C)C(=O)N[C@@H](Cc2ccc(O)cc2)C(=O)N[C@@H](Cc2ccccc2)C(=O)N1)[C@@H](C)O)C(=O)N[C@@H](Cc1c[nH]c2ccccc12)C(=O)O [Example 4, [Thr¹⁸, γLeu¹⁹]-ET-1] (H-CSCSSLMDKECVYFCHLT[tBuAla]IW-OH; disulfide 1-15, 3-11) | 7.4 | 50
5 | CC[C@H](C)[C@H](NC(=O)[C@H](CC(C)C)NC(=O)[C@H](CO)NC(=O)[C@H](CC(C)C)NC(=O)[C@H](Cc1c[nH]cn1)NC(=O)[C@@H]1CSSC[C@H](N)C(=O)N[C@@H](CO)C(=O)N[C@H]2CSSC[C@H](NC(=O)[C@H](CCC(=O)O)NC(=O)[C@H](CCCCN)NC(=O)[C@H](CC(=O)O)NC(=O)[C@H](CCSC)NC(=O)[C@H](CC(C)C)NC(=O)[C@H](CO)NC(=O)[C@H](CO)NC2=O)C(=O)N[C@@H](C(C)C)C(=O)N[C@@H](Cc2ccc(O)cc2)C(=O)N[C@@H](Cc2ccccc2)C(=O)N1)C(=O)N[C@@H](Cc1c[nH]c2ccccc12)C(=O)O [Example 6, [Ser¹⁸, Leu¹⁹]-ET-1] (H-CSCSSLMDKECVYFCHLSLIW-OH; disulfide 1-15, 3-11) | 7.5 | 63
6 | CC[C@H](C)[C@H](NC(=O)[C@H](CC(C)C)NC(=O)CNC(=O)[C@H](CC(C)C)NC(=O)[C@H](Cc1c[nH]cn1)NC(=O)[C@@H]1CSSC[C@H](N)C(=O)N[C@@H](CO)C(=O)N[C@H]2CSSC[C@H](NC(=O)[C@H](CCC(=O)O)NC(=O)[C@H](CCCCN)NC(=O)[C@H](CC(=O)O)NC(=O)[C@H](CCSC)NC(=O)[C@H](CC(C)C)NC(=O)[C@H](CO)NC(=O)[C@H](CO)NC2=O)C(=O)N[C@@H](C(C)C)C(=O)N[C@@H](Cc2ccc(O)cc2)C(=O)N[C@@H](Cc2ccccc2)C(=O)N1)C(=O)N[C@@H](Cc1c[nH]c2ccccc12)C(=O)O [Example 8, [Gly¹⁸, Leu¹⁹]-ET-1] (H-CSCSSLMDKECVYFCHLGLIW-OH; disulfide 1-15, 3-11) | 6.7 | 10
7 | CC[C@H](C)[C@H](NC(=O)[C@H](CC(C)C)NC(=O)[C@@H](NC(=O)[C@H](CC(C)C)NC(=O)[C@H](Cc1c[nH]cn1)NC(=O)[C@@H]1CSSC[C@H](N)C(=O)N[C@@H](CO)C(=O)N[C@H]2CSSC[C@H](NC(=O)[C@H](CCC(=O)O)NC(=O)[C@H](C)NC(=O)[C@H](CC(=O)O)NC(=O)[C@H](CCSC)NC(=O)[C@H](CC(C)C)NC(=O)[C@H](CO)NC(=O)[C@H](CO)NC2=O)C(=O)N[C@@H](C(C)C)C(=O)N[C@@H](Cc2ccc(O)cc2)C(=O)N[C@@H](Cc2ccccc2)C(=O)N1)[C@@H](C)O)C(=O)N[C@@H](Cc1c[nH]c2ccccc12)C(=O)O [Example 10, [Ala⁹, Thr¹⁸, Leu¹⁹]-ET-1] (H-CSCSSLMDAECVYFCHLTLIW-OH; disulfide 1-15, 3-11) | 5.9 | 1.6
8 | CC[C@H](C)[C@H](NC(=O)[C@H](CC(C)C)NC(=O)[C@@H](NC(=O)[C@H](CC(C)C)NC(=O)[C@H](Cc1c[nH]cn1)NC(=O)[C@@H]1CSSCCC(=O)N[C@@H](CO)C(=O)N[C@H]2CSSC[C@H](NC(=O)[C@H](CCC(=O)O)NC(=O)[C@H](CCCCN)NC(=O)[C@H](CC(=O)O)NC(=O)[C@H](CCSC)NC(=O)[C@H](CC(C)C)NC(=O)[C@H](CO)NC(=O)[C@H](CO)NC2=O)C(=O)N[C@@H](C(C)C)C(=O)N[C@@H](Cc2ccc(O)cc2)C(=O)N[C@@H](Cc2ccccc2)C(=O)N1)[C@@H](C)O)C(=O)N[C@@H](Cc1c[nH]c2ccccc12)C(=O)O [Example 11, [Mpr¹, Thr¹⁸, Leu¹⁹]-ET-1] ([Mpa]SCSSLMDKECVYFCHLTLIW-OH; disulfide 1-15, 3-11) | 6.5 | 6
9 | CC[C@H](C)[C@H](NC(=O)[C@H](CC(C)C)NC(=O)[C@@H](NC(=O)[C@H](CC(C)C)NC(=O)[C@H](Cc1c[nH]cn1)NC(=O)[C@@H]1CSSC[C@H](N)C(=O)N[C@@H](C)C(=O)N[C@H]2CSSC[C@H](NC(=O)[C@H](CCC(=O)O)NC(=O)[C@H](CCCCN)NC(=O)[C@H](CC(=O)O)NC(=O)[C@H](CCSC)NC(=O)[C@H](CC(C)C)NC(=O)[C@H](CO)NC(=O)[C@H](CO)NC2=O)C(=O)N[C@@H](C(C)C)C(=O)N[C@@H](Cc2ccc(O)cc2)C(=O)N[C@@H](Cc2ccccc2)C(=O)N1)[C@@H](C)O)C(=O)N[C@@H](Cc1c[nH]c2ccccc12)C(=O)O [Example 12, [Ala², Thr¹⁸, Leu¹⁹]-ET-1] (H-CACSSLMDKECVYFCHLTLIW-OH; disulfide 1-15, 3-11) | 6.7 | 10
10 | CC[C@H](C)[C@H](NC(=O)[C@H](CC(C)C)NC(=O)[C@@H](NC(=O)[C@H](CC(C)C)NC(=O)[C@H](Cc1c[nH]cn1)NC(=O)[C@@H]1CSSC[C@H](N)C(=O)N[C@@H](CO)C(=O)N[C@H]2CSSC[C@H](NC(=O)[C@H](CCC(=O)O)NC(=O)[C@H](CCCCN)NC(=O)[C@H](CC(=O)O)NC(=O)[C@H](CCSC)NC(=O)[C@H](CC(C)C)NC(=O)[C@H](CO)NC(=O)[C@H](C)NC2=O)C(=O)N[C@@H](C(C)C)C(=O)N[C@@H](Cc2ccc(O)cc2)C(=O)N[C@@H](Cc2ccccc2)C(=O)N1)[C@@H](C)O)C(=O)N[C@@H](Cc1c[nH]c2ccccc12)C(=O)O [Example 13, [Ala⁴, Thr¹⁸, Leu¹⁹]-ET-1] (H-CSCASLMDKECVYFCHLTLIW-OH; disulfide 1-15, 3-11) | 6.9 | 16
11 | CC[C@H](C)[C@H](NC(=O)[C@H](CC(C)C)NC(=O)[C@@H](NC(=O)[C@H](CC(C)C)NC(=O)[C@H](Cc1c[nH]cn1)NC(=O)[C@@H]1CSSC[C@H](N)C(=O)N[C@@H](CO)C(=O)N[C@H]2CSSC[C@H](NC(=O)[C@H](CCC(=O)O)NC(=O)[C@H](CCCCN)NC(=O)[C@H](CC(=O)O)NC(=O)[C@H](CCSC)NC(=O)[C@H](CC(C)C)NC(=O)[C@H](C)NC(=O)[C@H](CO)NC2=O)C(=O)N[C@@H](C(C)C)C(=O)N[C@@H](Cc2ccc(O)cc2)C(=O)N[C@@H](Cc2ccccc2)C(=O)N1)[C@@H](C)O)C(=O)N[C@@H](Cc1c[nH]c2ccccc12)C(=O)O [Example 14, [Ala⁵, Thr¹⁸, Leu¹⁹]-ET-1] (H-CSCSALMDKECVYFCHLTLIW-OH; disulfide 1-15, 3-11) | 5.5 | 0.6
